Where a name gives a salt, the structure may show the parent alone. Read-outs that look alike come from different tables or passages of the source.
Target: T1, G protein-coupled receptor 119 (GPR-119) (Mesocricetus auratus, UniProt A0A1U8CD06)
T1 construct: hamster-derived β-cells containing G protein-coupled receptor 119 (GPR-119), HIT-T15 cells; host or cells: HIT-T15 (hamster pancreatic β-cells)
T1 sequence (A0A1U8CD06 1-334): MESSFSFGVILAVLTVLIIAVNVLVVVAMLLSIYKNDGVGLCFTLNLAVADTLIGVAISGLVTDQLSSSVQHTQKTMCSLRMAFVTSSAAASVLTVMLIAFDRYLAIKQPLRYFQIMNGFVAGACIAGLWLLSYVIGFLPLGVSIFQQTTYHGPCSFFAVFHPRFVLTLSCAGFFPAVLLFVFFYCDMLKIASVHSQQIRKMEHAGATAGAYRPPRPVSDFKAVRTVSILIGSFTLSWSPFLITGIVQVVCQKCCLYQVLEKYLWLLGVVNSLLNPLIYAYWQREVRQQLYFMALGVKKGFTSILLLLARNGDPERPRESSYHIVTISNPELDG
Test: Evaluation of cAMP activity in HIT-T15 cells (HTRF cAMP dynamic kit)
Type: cell-based, hamster
Details: cAMP activation
Experimental: To check whether the cyclohexene derivatives according to the present invention activate cyclic adenosine monophosphate (cAMP), experiments were carried out, as follows.
The HIT-T15 cells were plated on a 96-well plate at 60,000 cells per well. On the next day of plating, the cells were treated with a varying concentration of each of the example compounds according to the present invention, and incubated at 37° C. for an hour. In this case, each of the treated compounds was used at six concentrations, ranging from […], to treat the cells.
The cyclic adenosine monophosphate (cAMP) activity was measured according to the manufacturer's instruction using a cAMP dynamic kit commercially available from Cis Bio Inc. (Bedford, Mass.). The cells were lysed, and a level of cAMP was determined by a competitive immunoassay using D2-labeled cAMP and a cryptate-labeled anti-cAMP antibody. Fluorescence was read in Flex Station (Molecular Devices). […] Unlabeled cAMP in the cell lysate competed with the D2-labeled cAMP against the cryptate-labeled antibody. Since a decrease in the measured intensity of the FRET signals represents a level of cAMP in the cells, the cAMP activities of the compounds are calculated as a change in FRET signals by adjusting an amount of dimethyl sulfoxide (DMSO).

[1] = 1 h at 37° C., six concentrations, read-out: EC50

| Compound | EC50 [1] [nM] | further results |
| --- | --- | --- |
| CC(C)c1noc(N2CCC(COc3ccc(C4=CCC(C(=O)N5CCCC5)CC4)cc3)CC2)n1 (centres unmarked) [Example 52, (4-(4-((1-(3-isopropyl-1,2,4-oxadiazol-5-yl)piperidin-4-yl)methoxy)phenyl)cyclohex-3-enyl)(pyrrolidin-1-yl)methanone] | 55 | – |
| CC(C)(C)OC(=O)N1CCC(COc2ccc(C3=CCC(C(=O)N4CCC5(CC4)OCCO5)CC3)cc2)CC1 (centres unmarked) [Example 263, tert-butyl 4-((4-(4-(1,4-dioxa-8-azaspiro[4.5]decane-8-carbonyl)cyclohex-1-enyl)phenoxy)methyl)piperidine-1-carboxylate] | – | EC50 (EC50 (nM), 1 h at 37° C., six concentrations): 9 nM; EC50 (EC50 value): ≤ 50 nM |
| CC(C)c1noc(N2CCC(COc3ccc(C4=CCC(C(=O)N5CC[C@@H](F)C5)CC4)nc3)CC2)n1 (stereo partly drawn) [Example 101, ((R)-3-fluoropyrrolidin-1-yl)(4-(5-((1-(3-isopropyl-1,2,4-oxadiazol-5-yl)piperidin-4-yl)methoxy)pyridin-2-yl)cyclohex-3-enyl)methanone] | 110 | – |
| CC(C)c1noc(N2CCC(COc3ccc(C4=CCC(C(=O)N[C@@H](C)CO)CC4)nc3)CC2)n1 (stereo partly drawn) [Example 37, N-((S)-1-hydroxypropan-2-yl)-4-(5-((1-(3-isopropyl-1,2,4-oxadiazol-5-yl)piperidin-4-yl)methoxy)pyridin-2-yl)cyclohex-3-enecarboxamide] | 300 | – |
| CCc1cnc(N2CCC(COc3ccc(C4=CCC(C(=O)N5CC[C@H](CO)C5)CC4)cc3)CC2)nc1 (stereo partly drawn) [Example 158, (4-(4-((1-(5-ethylpyrimidin-2-yl)piperidin-4-yl)methoxy)phenyl)cyclohex-3-enyl)((S)-3-(hydroxymethyl)pyrrolidin-1-yl)methanone hydrochloride] | 25 | – |
| CC(C)c1noc(N2CCC(COc3ccc(C4=CCC(C(=O)NCCF)CC4)cc3)CC2)n1 (centres unmarked) [Example 75, N-(2-fluoroethyl)-4-(4-((1-(3-isopropyl-1,2,4-oxadiazol-5-yl)piperidin-4-yl)methoxy)phenyl)cyclohex-3-enecarboxamide] | 210 | – |
| CC(C)c1noc(N2CCC(COc3ccc(C4=CCC(C(=O)NC[C@@H](C)O)CC4)cc3)CC2)n1 (stereo partly drawn) [Example 28, N-((R)-2-hydroxypropyl)-4-(4-((1-(3-isopropyl-1,2,4-oxadiazol-5-yl)piperidin-4-yl)methoxy)phenyl)cyclohex-3-enecarboxamide] | 110 | – |
| CC(C)c1noc(N2CCC(COc3ccc(C4=CCC(C(=O)N5CCC(F)(F)C5)CC4)cc3)CC2)n1 (centres unmarked) [Example 259, (3,3-difluoropyrrolidin-1-yl)(4-(4-((1-(3-isopropyl-1,2,4-oxadiazol-5-yl)piperidin-4-yl)methoxy)phenyl)cyclohex-3-enyl)methanone] | 10 | EC50 (read-out: EC50 value): ≤ 50 nM |
| CCc1cnc(N2CCC(COc3ccc(C4=CCC(C(=O)N5CCC(CCO)CC5)CC4)cc3)CC2)nc1 (centres unmarked) [Example 173, (4-(4-((1-(5-ethylpyrimidin-2-yl)piperidin-4-yl)methoxy)phenyl)cyclohex-3-enyl)(4-(2-hydroxyethyl)piperidin-1-yl)methanone] | 18 | – |
| CC(C)c1noc(N2CCC(COc3ccc(C4=CCC(C(=O)NCCO)CC4)cc3)CC2)n1 (centres unmarked) [Example 31, N-(2-hydroxyethyl)-4-(4-((1-(3-isopropyl-1,2,4-oxadiazol-5-yl)piperidin-4-yl)methoxy)phenyl)cyclohex-3-enecarboxamide] | 260 | – |
| CC(C)(C)OC(=O)N1CCC(COc2ccc(C3=CCC(C(=O)NC[C@@H](O)CO)CC3)cc2)CC1 (stereo partly drawn) [Example 4, tert-butyl 4-((4-(4-((R)-2,3-dihydroxypropylcarbamoyl)cyclohex-1-enyl)phenoxy)methyl)piperidine-1-carboxylate] | 150 | – |
| CC(C)c1noc(N2CCC(COc3ccc(C4=CCC(C(=O)N5CCSCC5)CC4)cc3F)CC2)n1 (centres unmarked) [Example 98, (4-(3-fluoro-4-((1-(3-isopropyl-1,2,4-oxadiazol-5-yl)piperidin-4-yl)methoxy)phenyl)cyclohex-3-enyl)(thiomorpholino)methanone] | 6.1 | EC50 (read-out: EC50 value): ≤ 50 nM |
| CC(C)c1noc(N2CCC(COc3ccc(C4=CCC(C(=O)N5CC[C@H](CO)C5)CC4)cc3)CC2)n1 (stereo partly drawn) [Example 150, ((S)-3-(hydroxymethyl)pyrrolidin-1-yl)(4-(4-((1-(3-isopropyl-1,2,4-oxadiazol-5-yl)piperidin-4-yl)methoxy)phenyl)cyclohex-3-enyl)methanone] | 19 | EC50 (read-out: EC50 value): ≤ 50 nM |
| CCc1cnc(N2CCC(COc3ccc(C4=CCC(C(=O)NC[C@H](C)O)CC4)cc3)CC2)nc1 (stereo partly drawn) [Example 136, 4-(4-((1-(5-ethylpyrimidin-2-yl)piperidin-4-yl)methoxy)phenyl)-N-((S)-2-hydroxypropyl)cyclohex-3-enecarboxamide] | 62 | – |
| CC(C)c1noc(N2CCC(COc3ccc(C4=CCC(C(=O)N5CCOCC5)CC4)cc3F)CC2)n1 (centres unmarked) [Example 97, (4-(3-fluoro-4-((1-(3-isopropyl-1,2,4-oxadiazol-5-yl)piperidin-4-yl)methoxy)phenyl)cyclohex-3-enyl)(morpholino)methanone] | 8.4 | EC50 (read-out: EC50 value): ≤ 50 nM |
| COC(=O)CNC(=O)C1CC=C(c2ccc(OCC3CCN(c4nc(C(C)C)no4)CC3)c(F)c2)CC1 (centres unmarked) [Example 109] | 190 | – |
| CCc1cnc(N2CCC(COc3ccc(C4=CCC(C(=O)N5CCC[C@H]5C#N)CC4)cc3)CC2)nc1 (stereo partly drawn) [Example 106, (2S)-1-(4-(4-((1-(5-ethylpyrimidin-2-yl)piperidin-4-yl)methoxy)phenyl)cyclohex-3-enecarbonyl)pyrrolidine-2-carbonitrile] | 22 | EC50 (read-out: EC50 value): ≤ 50 nM |
| CC(C)c1noc(N2CCC(COc3ccc(C4=CCC(C(=O)N5CCC[C@H]5C(N)=O)CC4)cc3F)CC2)n1 (stereo partly drawn) [Example 108, (2S)-1-(4-(3-fluoro-4-((1-(3-isopropyl-1,2,4-oxadiazol-5-yl)piperidin-4-yl)methoxy)phenyl)cyclohex-3-enecarbonyl)pyrrolidine-2-carboxamide] | 55 | – |
| CCOC(=O)CCNC(=O)C1CC=C(c2ccc(OCC3CCN(c4nc(C(C)C)no4)CC3)c(F)c2)CC1 (centres unmarked) [Example 110, ethyl 3-(4-(3-fluoro-4-((1-(3-isopropyl-1,2,4-oxadiazol-5-yl)piperidin-4-yl)methoxy)phenyl)cyclohex-3-enecarboxamido)propanoate] | 110 | – |
| CC(C)(C)OC(=O)N1CCC(COc2ccc(C3=CCC(C(=O)N4CCC5(C=Cc6ccccc65)CC4)CC3)cc2)CC1 (centres unmarked) [Example 264, tert-butyl 4-((4-(4-(spiro[indene-1,4′-piperidin]-1′-ylcarbonyl)cyclohex-1-enyl)phenoxy)methyl)piperidine-1-carboxylate] | 18 | – |
| CCc1cnc(N2CCC(COc3ccc(C4=CCC(C(=O)N5CCCCC5)CC4)cc3)CC2)nc1 (centres unmarked) [Example 167, (4-(4-((1-(5-ethylpyrimidin-2-yl)piperidin-4-yl)methoxy)phenyl)cyclohex-3-enyl)(piperidin-1-yl)methanone hydrochloride] | 14 | – |
| CC(C)(C)OC(=O)N1CCC(COc2ccc(C3=CCC(C(=O)N4CC[C@@H](O)C4)CC3)cc2)CC1 (stereo partly drawn) [Example 5, tert-butyl 4-((4-(4-((R)-3-hydroxypyrrolidine-1-carbonyl)cyclohex-1-enyl)phenoxy)methyl)piperidine-1-carboxylate] | 29 | EC50 (read-out: EC50 value): ≤ 50 nM |

Reference: patent US9758527B2, “Cyclohexene derivative, preparation method therefor, and pharmaceutical composition for preventing or treating metabolic diseases, containing same as active ingredient” (HYUNDAI PHARM CO., LTD., priority 2014, dated 2017)
